From patent publication US20180228897A1, “Compositions for Vapor Phase Delivery of Active Compounds, Methods of Making and Using Same, and Kits Comprising Same” (Atmovita, LLC, priority 2015, published 2018)
≈ marks a conversion by molar mass, not a printed value.

Experiments:
Assay type in all cases: physicochemical
[1] = Folate solubility in glycerin/2,3 butane diol stock compositions with co-solutes (incremental addition, heat gun, stirring)
Method: Folate. Folate and biotin are the two most difficult to dissolve B vitamins. Folate solubility enhancement was provided by addition of beta-cyclodextrin.
The solubility enhancement from mannitol/biotin alone was tested next. […] This is major improvement over most polar solvents (0.0016 g/L of water at 25° C.).
First the mannitol/biotin powder was mixed with 0.004 g of folate. This was added to the test tube followed by the liquid. It was stirred vigorously. Then it was heated with a heat gun until clear and no folate was suspended. […] All the liquid was moved to another test tube and the precipitate remained. Then folate was incrementally added (about 1 mg) and the solution was stirred, followed by heating** until it became clear. It would take at least 3 minutes of heating for it to become clear but as more folate was added, at least 4 minutes of heating were needed. This is how the original solution was formed. Over the course of several days there was no further precipitate or increase in viscosity. ** all heating was done with the yellow heat gun on the lowest setting (240° F.)
While heating and stirring the lid popped off and 0.75 ml of solution spilled out. Even accounting for folate lost in the spill, currently at least 8 mg of folate have been dissolved in 2.75 ml and the solution is completely clear. Heating the solution caused the lid to pop so it must be removed after about 1 minute and 30 seconds of heating prior to any further heating. It is also crucial for the solution to have been flipped upside down, preferably while warm. The solution must not be heated while flipped as this may cause a spill.
The original solution still has less much viscosity but also a slightly lower concentration of folate. It appears that somewhere beyond 8 mg folate/[…] of solution it becomes supersaturated, resulting in a thick gel upon settling and cooling. […] As long as supersaturation followed by settling is avoided, the solution will remain liquid. Another option is to study the effect of precipitation inhibitors or the sonicator to further boost solubility without increasing viscosity.
Testing was also done with only stock, stock+water and stock+ethanol but having both water and ethanol is crucial to the process. […] Despite having separated the liquid from the precipitate which was nearly all biotin/mannitol, the powder still played a role in improving folate solubility. […] The following composition (3 ml stock+0.25 ml water+0.25 ml ethanol+0.009 g of biotin) dissolved 11.2 mg of folate but became extremely viscous.
According to research on drug solubility there is a class of molecules known as hydrotropes (also known as chaotropes, […]). They reduce hydrophobic forces between non-polar solutes in polar solvents. One such molecule is niacinamide (vitamin B3 amide). These hydrotropes are planar and are either very polar or have nonpolar and polar sides like surfactants but shorter. This experiment was repeated with niacinamide as a cosolute and with a combination of B3 amide and Biotin. The biotin and B3 amide were added along with 4 mg of folate (and crushed together) wet into dry to the solution. The remaining folate was added incrementally along with heating and stirring. […] (2.5 ml stock+0.5 ml water+0.5 ml ethanol+0.0221 g of B3 amide) dissolved approximately 11 mg of folate and a small amount of precipitate. (2.5 ml stock+0.5 ml water+0.5 ml ethanol+0.0221 g of B3 amide+0.090 g pure biotin) dissolved approximately 11.4 mg of folate without precipitate. Unfortunately both solutions were extremely viscous after a few days.
Eventually the B3 amide and biotin cosolute solution was prepared using “reverse stock” instead of regular with the goal of lowering viscosity. The reverse stock is a solution of 3:7 mol glycerin and 2,3 butane diol. Initially this made folate precipitate so additional glycerin was added to achieve a 1:1 mol ratio of glycerin to 2,3 butane diol.

[2] = as above; settings: 2.5 ml stock+0.15 ml water+0.15 ml ethanol+0.01135 g beta-cyclodextrin+0.0182 g biotin/mannitol+0.00441 folate, without heating
[3] = Trans resveratrol solubility in stock with solvents and co-solutes (incremental addition, heat gun); settings: solution 2 (3.5 ml pure carvone) and solution 4 (3 ml carvone+0.5 ml ethanol), without heating
Method: The initial approach was to test non polar solvents and their effectiveness with ethanol. This included pure stock as a control, carvone, and combinations of those solvents with ethanol. The following solvents were prepared: Control—3.5 ml of pure stock, 1-1.75 ml of stock+1.75 ml of carvone+0.2 ml of 0.01 mol NaOH, 2-3.5 ml of pure carvone, 3-3 ml of stock+0.5 ml of ethanol, 4-3 ml of carvone+0.5 ml of ethanol.
Solution 1 became biphasic and cloudy. The control and solution 4 have approximately the same solubility of TR. […] Solvent was added until the TR was dissolved which occurred at 60 mg/ml of stock. This original solution was split into 5 test tubes of 1 ml each with about 0.06 g of TR.
The following solutions were made: 1—adding […] of carvone (equimolar with TR, 0.000263 mol of each) 2—adding 0.175 ml of ethanol 3-0.235 ml of carvone and 0.1 ml of ethanol. Solution 1 became cloudy because the carvone is immiscible with the stock. Several attempts to fix this were made using of ethanol and B3 amide as hydrotropes but it had no effect.
Next co-solutes were used along with the TR in stock solution. 0.000263 mol of the following were dissolved along with TR in 3 ml stock: 1-niacin, 2-caffeine, 3-gallic acid, 4-salicylic acid, 5-thiamine, 6-niacinamide, and 7-pantothenic acid. Two additional samples were prepared of 0.01 g biotin (8) and 0.04 g of -pyridoxine HCl (9). Each solution consisted of the stated amount of co-solute and 3 ml of stock. The following amounts of TR (which was added incrementally (30-40 mg) and heated for 3-4 minutes by heat gun) created the following:
To conduct further testing 0.5 ml of ethanol was added to the solutions with niacin, biotin, thiamine, and salicylic acid. The successful B3 amide solution was split into two solutions of (1.625 and 1.375 ml) with 0.25 ml of ethanol being added to the 1.375 ml solution. The results were as follows:
There was also testing with multiple solutes in 3 ml of stock:
Currently piperazine hexahydrate is being tested as it is another hydrotrope. […] It may work better with other co-solutes or ethanol.

[4] = Preparation of compositions (Example 3): appearance and stability of the solution; settings: heated at 175° C.
[5] = Increase in solubility of active compounds in the present compositions
Description: It is advantageous to take measures to increase the solubility of an active compound or active compounds within a composition that includes components that serve as excipients such that true solubilization of the compound(s) occurs and the activity of the active compounds are retained upon transition to the vapor phase. The present disclosure is based on the result that the solubility of active compounds can be increased by surprising and unexpected amounts.

[6] = Solubility of piracetam and pantothenic acid in stock; settings: glycerin/2,3 butane diol stock, organic solvent or mixture

Compound	amount of folate dissolved ([1]; 0.0221 g B3 amide, 0.0047 mg biotin, 3.5 ml equimolar glycerin and 2,3 butane diol, 0.5 ml water, 0.5 ml ethanol) [mg]	amount of folate dissolved ([1]; 2.5 ml stock+0.5 ml water+0.5 ml ethanol+0.0221 g B3 amide+0.090 g pure biotin, without precipitate)	amount of folate dissolved ([1]; 2.5 ml stock+0.5 ml water+0.5 ml ethanol+0.0221 g B3 amide, small amount of precipitate)	amount of folate dissolved ([1]; 3 ml stock+0.25 ml water+0.25 ml ethanol+0.009 g biotin) [mg]	amount of folate dissolved ([1]; 3 ml stock+0.25 ml water+0.25 ml ethanol+0.0182 g biotin/mannitol)	amount of folate dissolved ([1]; liquid only part of the same solution, no mannitol/biotin powder) [mg]	amount of folate dissolved ([1]; repeat experiment, in 2.75 ml of the biotin/mannitol solution, completely clear)	concentration beyond which solution becomes supersaturated (thick gel on settling and cooling) ([1]; stock+water+ethanol+biotin/mannitol solution)	appearance of solution [2]	dissolution in carvone solvents [3]	appearance of composition ([4]; 8 mg folic acid, 22.1 mg nicotinamide, 4.7 mg biotin in 3.5 ml (0.5 mol glycerin/0.5 mol propylene glycol), 0.5 ml water, 0.5 ml ethanol, flavors)	increase in solubility [5]	solubility [6] [mg/mL]	appearance of composition ([4]; 0.2 grams piracetam in 1.5 ml stock, 2.0 ml fruit flavored vodka, 0.1 ml flavored glycerin)
Nc1nc2ncc(CNc3ccc(C(=O)N[C@@H](CCC(=O)O)C(=O)O)cc3)nc2c(=O)[nH]1 [folate, folic acid]	9	approximately 11.4 mg	approximately 11 mg	11.2	approximately 0.008 g	< 1.6	at least 8 mg	> 8 mg folate/3.5 ml of solution	clear with some orange (folate) precipitate on the bottom of the vial	easily dissolved	clear solution with flavor	≤ 15,000%		
NC(=O)CN1CCCC1=O [Piracetam, piracetam]													36.5 (≈ 257 mM)	clear solution with flavor
